Reference: patent US20260028354A1, “TETRAHYDRONAPHTHALENE DERIVATIVES AS ESTROGEN RECEPTOR DEGRADERS” (REGENT OF THE UNIVERSITY OF MICHIGAN, priority 2022, published 2026)

Assays:
ER = ER (Homo sapiens (Human), UniProt P03372); assay: In-cell western blot analysis of ER for "B" compounds; format: cell-based; settings: 16 hours, read-out: ICW DC50
How it was run: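 In-cell western: fixed cells stained with primary antibodies (2 h, RT), then anti-rabbit-680 and anti-mouse-800 secondaries (1:1000, 1 h, RT), imaged on a LI-COR plate reader. Relative ER level in treated wells expressed against untreated and DMSO-treated wells set as 100%.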

[1] = Cell growth assay (WST-8) for "B" compounds; format: cell-based; settings: T47D, T47D cell line; read-out: Cell growth Inhibition in T47D cell line IC50
How it was run: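 Cells seeded at 1500/well overnight, then exposed to compounds for 4 days. 10% WST-8 added for 2.5 h at 37 °C and absorbance read at 450 nm. Growth given as absorbance relative to vehicle control, from three repeats.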

ER, sequence (P03372 whole entry): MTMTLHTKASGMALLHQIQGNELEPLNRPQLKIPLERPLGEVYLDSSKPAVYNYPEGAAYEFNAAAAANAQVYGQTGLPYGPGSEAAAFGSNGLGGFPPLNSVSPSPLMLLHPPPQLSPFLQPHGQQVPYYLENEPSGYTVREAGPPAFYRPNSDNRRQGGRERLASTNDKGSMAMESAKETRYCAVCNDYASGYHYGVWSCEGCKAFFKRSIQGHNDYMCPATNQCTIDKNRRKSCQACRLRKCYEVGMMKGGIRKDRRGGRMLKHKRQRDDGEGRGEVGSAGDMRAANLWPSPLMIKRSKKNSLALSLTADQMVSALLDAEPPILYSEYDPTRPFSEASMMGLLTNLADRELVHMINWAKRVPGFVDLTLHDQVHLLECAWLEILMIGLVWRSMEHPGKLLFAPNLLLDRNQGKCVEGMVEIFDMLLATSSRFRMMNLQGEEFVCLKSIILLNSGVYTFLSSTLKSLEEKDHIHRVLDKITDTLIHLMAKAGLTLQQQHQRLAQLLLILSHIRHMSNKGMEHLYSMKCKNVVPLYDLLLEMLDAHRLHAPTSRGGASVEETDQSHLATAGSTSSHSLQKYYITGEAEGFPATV

Structure (SMILES) | DC50 (ER) | IC50 [1]
O=C1CCC(N2Cc3cc4c(cc3C2=O)OC[C@@H]2CN(C(=O)CN3CC5(CCN(c6ccc([C@@H]7c8ccc(O)cc8CC[C@@H]7c7ccccc7)cc6)CC5)C3)CCN42)C(=O)N1 (stereo partly drawn) [Compound B142, 3-((S)-3-(2-(7-(4-((1R,2S)-6-hydroxy-2-phenyl-1,2,3,4-tetrahydronaphthalen-1-yl)phenyl)-2,7-diazaspiro[3.5]nonan-2-yl)acetyl)-8-oxo-1,2,3,4,4a,5,8,10-octahydro-9H-pyrazino[1′,2′: 4,5][1,4]oxazino[2,3-f]isoindol-9-yl)piperidine-2,6-dione] | < 10 nM | < 1 nM
O=C1CCC(N2Cc3cc4c(cc3C2=O)OC[C@@H]2CN(CC(=O)N3CC5(CCN(c6ccc([C@@H]7c8ccc(O)cc8CC[C@@H]7c7ccccc7)cc6)CC5)C3)CCN42)C(=O)N1 (stereo partly drawn) [Compound B143, 3-((S)-3-(2-(7-(4-((1R,2S)-6-hydroxy-2-phenyl-1,2,3,4-tetrahydronaphthalen-1-yl)phenyl)-2,7-diazaspiro[3.5]nonan-2-yl)-2-oxoethyl)-8-oxo-1,2,3,4,4a,5,8,10-octahydro-9H-pyrazino[1′,2′: 4,5][1,4]oxazino[2,3-f]isoindol-9-yl)piperidine-2,6-dione] | < 10 nM | < 1 nM
O=C1CCC(N2Cc3cc4c(cc3C2=O)OC[C@@H]2CN(C(=O)CN3CCN(c5ccc([C@@H]6c7ccc(O)cc7CC[C@@H]6c6ccccc6)cc5)CC3)CCN42)C(=O)N1 (stereo partly drawn) [Compound B144, 3-((S)-3-(2-(4-(4-((1R,2S)-6-hydroxy-2-phenyl-1,2,3,4-tetrahydronaphthalen-1-yl)phenyl)piperazin-1-yl)acetyl)-8-oxo-1,2,3,4,4a,5,8,10-octahydro-9H-pyrazino[1′,2′:4,5][1,4]oxazino[2,3-f]isoindol-9-yl)piperidine-2,6-dione] | 10 to 100 nM | < 1 nM
O=C1CCC(N2Cc3cc4c(cc3C2=O)OC[C@@H]2CN(CC(=O)N3CCN(c5ccc([C@@H]6c7ccc(O)cc7CC[C@@H]6c6ccccc6)cc5)CC3)CCN42)C(=O)N1 (stereo partly drawn) [Compound B145, 3-((S)-3-(2-(4-(4-((1R,2S)-6-hydroxy-2-phenyl-1,2,3,4-tetrahydronaphthalen-1-yl)phenyl)piperazin-1-yl)-2-oxoethyl)-8-oxo-1,2,3,4,4a,5,8,10-octahydro-9H-pyrazino[1′,2′:4,5][1,4]oxazino[2,3-f]isoindol-9-yl)piperidine-2,6-dione] | 10 to 100 nM | < 1 nM
O=C1CCC(N2Cc3cc4c(cc3C2=O)OC[C@@H]2CN(C(=O)CN3CCC5(CC3)CCN(c3ccc([C@@H]6c7ccc(O)cc7CC[C@@H]6c6ccccc6)cc3)CC5)CCN42)C(=O)N1 (stereo partly drawn) [Compound B146, 3-((S)-3-(2-(9-(4-((1R,2S)-6-hydroxy-2-phenyl-1,2,3,4-tetrahydronaphthalen-1-yl)phenyl)-3,9-diazaspiro[5.5]undecan-3-yl)acetyl)-8-oxo-1,2,3,4,4a,5,8,10-octahydro-9H-pyrazino[1′,2′:4,5][1,4]oxazino[2,3-f]isoindol-9-yl)piperidine-2,6-dione] | < 10 nM | < 1 nM
O=C1CCC(N2Cc3cc4c(cc3C2=O)OC[C@@H]2CN(CC(=O)N3CCC5(CC3)CCN(c3ccc([C@@H]6c7ccc(O)cc7CC[C@@H]6c6ccccc6)cc3)CC5)CCN42)C(=O)N1 (stereo partly drawn) [Compound B147, 3-((S)-3-(2-(9-(4-((1R,2S)-6-hydroxy-2-phenyl-1,2,3,4-tetrahydronaphthalen-1-yl)phenyl)-3,9-diazaspiro[5.5]undecan-3-yl)-2-oxoethyl)-8-oxo-1,2,3,4,4a,5,8,10-octahydro-9H-pyrazino[1′,2′:4,5][1,4]oxazino[2,3-f]isoindol-9-yl)piperidine-2,6-dione] | 10 to 100 nM | 1 to 10 nM
O=C1CCC(N2Cc3cc4c(cc3C2=O)OC[C@@H]2CN(CC(=O)N3CCC5(CC3)CCN(c3ccc([C@@H]6c7ccc(O)cc7CC[C@@H]6c6ccccc6)cn3)CC5)CCN42)C(=O)N1 (stereo partly drawn) [Compound B148, 3-((S)-3-(2-(9-(5-(cis-6-hydroxy-2-phenyl-1,2,3,4-tetrahydronaphthalen-1-yl)pyridin-2-yl)-3,9-diazaspiro[5.5]undecan-3-yl)-2-oxoethyl)-8-oxo-1,2,3,4,4a,5,8,10-octahydro-9H-pyrazino[1′,2′: 4,5][1,4]oxazino[2,3-f]isoindol-9-yl)piperidine-2,6-dione] | 10 to 100 nM | 1 to 10 nM
O=C1CCC(N2Cc3cc4c(cc3C2=O)OC[C@@H]2CN(CC(=O)N3CC(Oc5ccc([C@@H]6c7ccc(O)cc7CC[C@@H]6c6ccccc6)cc5)C3)CCN42)C(=O)N1 (stereo partly drawn) [Compound B150, 3-((S)-3-(2-(3-(4-((1R,2S)-6-hydroxy-2-phenyl-1,2,3,4-tetrahydronaphthalen-1-yl)phenoxy)azetidin-1-yl)-2-oxoethyl)-8-oxo-1,2,3,4,4a,5,8,10-octahydro-9H-pyrazino[1′,2′:4,5][1,4]oxazino[2,3-f]isoindol-9-yl)piperidine-2,6-dione] | < 10 nM | < 1 nM
O=C1CCC(N2Cc3cc4c(cc3C2=O)OC[C@@H]2CN(C(=O)CN3CC(Oc5ccc([C@@H]6c7ccc(O)cc7CC[C@@H]6c6ccccc6)cc5)C3)CCN42)C(=O)N1 (stereo partly drawn) [Compound B151, 3-((S)-3-(2-(3-(4-((1R,2S)-6-hydroxy-2-phenyl-1,2,3,4-tetrahydronaphthalen-1-yl)phenoxy)azetidin-1-yl)acetyl)-8-oxo-1,2,3,4,4a,5,8,10-octahydro-9H-pyrazino[1′,2′:4,5][1,4]oxazino[2,3-f]isoindol-9-yl)piperidine-2,6-dione] | < 10 nM | < 1 nM
O=C1CCC(N2Cc3cc4c(cc3C2=O)OC[C@@H]2CN(CC(=O)N3CCC5(C3)CN(c3ccc([C@@H]6c7ccc(O)cc7CC[C@@H]6c6ccccc6)cc3)C5)CCN42)C(=O)N1 (stereo partly drawn) [Compound B152, 3-((S)-3-(2-(2-(4-((1R,2S)-6-hydroxy-2-phenyl-1,2,3,4-tetrahydronaphthalen-1-yl)phenyl)-2,6-diazaspiro[3.4]octan-6-yl)-2-oxoethyl)-8-oxo-1,2,3,4,4a,5,8,10-octahydro-9H-pyrazino[1′,2′:4,5][1,4]oxazino[2,3-f]isoindol-9-yl)piperidine-2,6-dione] | < 10 nM | < 1 nM
O=C1CCC(N2Cc3cc4c(cc3C2=O)OC[C@@H]2CN(CC(=O)N3CC5(CC(Nc6ccc([C@@H]7c8ccc(O)cc8CC[C@@H]7c7ccccc7)cc6)C5)C3)CCN42)C(=O)N1 (stereo partly drawn) [Compound B153, 3-((S)-3-(2-(6-((4-((1R,2S)-6-hydroxy-2-phenyl-1,2,3,4-tetrahydronaphthalen-1-yl)phenyl)amino)-2-azaspiro[3.3]heptan-2-yl)-2-oxoethyl)-8-oxo-1,2,3,4,4a,5,8,10-octahydro-9H-pyrazino[1′,2′:4,5][1,4]oxazino[2,3-f]isoindol-9-yl)piperidine-2,6-dione] | < 10 nM | < 1 nM
O=C1CCC(N2Cc3cc4c(cc3C2=O)OC[C@@H]2CN(C(=O)CN3CCC5(C3)CN(c3ccc([C@@H]6c7ccc(O)cc7CC[C@@H]6c6ccccc6)cc3)C5)CCN42)C(=O)N1 (stereo partly drawn) [Compound B154, 3-((S)-3-(2-(2-(4-((1R,2S)-6-hydroxy-2-phenyl-1,2,3,4-tetrahydronaphthalen-1-yl)phenyl)-2,6-diazaspiro[3.4]octan-6-yl)acetyl)-8-oxo-1,2,3,4,4a,5,8,10-octahydro-9H-pyrazino[1′,2′:4,5][1,4]oxazino[2,3-f]isoindol-9-yl)piperidine-2,6-dione] | < 10 nM | < 1 nM
O=C1CCC(N2Cc3cc4c(cc3C2=O)OC[C@@H]2CN(C(=O)CN3CC5(CC(Nc6ccc([C@@H]7c8ccc(O)cc8CC[C@@H]7c7ccccc7)cc6)C5)C3)CCN42)C(=O)N1 (stereo partly drawn) [Compound B155, 3-((S)-3-(2-(6-((4-((1R,2S)-6-hydroxy-2-phenyl-1,2,3,4-tetrahydronaphthalen-1-yl)phenyl)amino)-2-azaspiro[3.3]heptan-2-yl)acetyl)-8-oxo-1,2,3,4,4a,5,8,10-octahydro-9H-pyrazino[1′,2′:4,5][1,4]oxazino[2,3-f]isoindol-9-yl)piperidine-2,6-dione] | < 10 nM | < 1 nM
O=C1CCC(N2Cc3cc4c(cc3C2=O)OC[C@@H]2CN(C(=O)CN3C[C@@H]5CN(c6ccc([C@@H]7c8ccc(O)cc8CC[C@@H]7c7ccccc7)cc6)C[C@@H]5C3)CCN42)C(=O)N1 (stereo partly drawn) [Compound B157, 3-((S)-3-(2-((3aR,6aS)-5-(4-((1R,2S)-6-hydroxy-2-phenyl-1,2,3,4-tetrahydronaphthalen-1-yl)phenyl)hexahydropyrrolo[3,4-c]pyrrol-2(1H)-yl)acetyl)-8-oxo-1,2,3,4,4a,5,8,10-octahydro-9H-pyrazino[1′,2′:4,5][1,4]oxazino[2,3-f]isoindol-9-yl)piperidine-2,6-dione] | 10 to 100 nM | < 1 nM
O=C1CCC(N2Cc3cc4c(cc3C2=O)OC[C@@H]2CN(C(=O)CN3CCC5(CC3)CCN(c3ncc([C@@H]6c7ccc(O)cc7CC[C@@H]6c6ccccc6)cn3)CC5)CCN42)C(=O)N1 (stereo partly drawn) [Compound B159, 3-((S)-3-(2-(9-(5-((1S,2S)-6-hydroxy-2-phenyl-1,2,3,4-tetrahydronaphthalen-1-yl)pyrimidin-2-yl)-3,9-diazaspiro[5.5]undecan-3-yl)acetyl)-8-oxo-1,2,3,4,4a,5,8,10-octahydro-9H-pyrazino[1′,2′:4,5][1,4]oxazino[2,3-f]isoindol-9-yl)piperidine-2,6-dione] | 10 to 100 nM | 1 to 10 nM
O=C1CCC(N2C(=O)c3cc4c(cc3C2=O)CN(CC(=O)N2CC3(CC(Nc5ccc([C@@H]6c7ccc(O)cc7CC[C@@H]6c6ccccc6)cc5)C3)C2)C4)C(=O)N1 (stereo partly drawn) [Compound B163, 2-(2,6-dioxopiperidin-3-yl)-6-(2-(6-((4-((1R,2S)-6-hydroxy-2-phenyl-1,2,3,4-tetrahydronaphthalen-1-yl)phenyl)amino)-2-azaspiro[3.3]heptan-2-yl)-2-oxoethyl)-6,7-dihydropyrrolo[3,4-f]isoindole-1,3(2H,5H)-dione] | < 10 nM | 1 to 10 nM
